Test results: PubChem BioAssay (NCI)
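Interpolation was linear, between the two tested concentrations surrounding the appropriate level; five concentrations were tested over 48 hours in 96-well plates. The concentration for full growth arrest is given as TGI.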

Legend:
Test in all cases: NCI anticancer screen, dose series, 48 h
SK-OV-3 ovarian = tested on: SK-OV-3 ovarian
CAKI-1 renal = tested on: CAKI-1 renal
SK-MEL-28 melanoma = tested on: SK-MEL-28 melanoma
NCI-H522 lung = tested on: NCI-H522 lung
XF 498 CNS = tested on: XF 498 CNS
SK-MEL-5 melanoma = tested on: SK-MEL-5 melanoma
SNB-19 CNS = tested on: SNB-19 CNS
OVCAR-4 ovarian = tested on: OVCAR-4 ovarian
HL-60(TB) leukemia = tested on: HL-60(TB) leukemia
RPMI-8226 leukemia = tested on: RPMI-8226 leukemia
UO-31 renal = tested on: UO-31 renal
COLO 205 colon = tested on: COLO 205 colon
HT29 colon = tested on: HT29 colon
SK-MEL-2 melanoma = tested on: SK-MEL-2 melanoma
HCT-15 colon = tested on: HCT-15 colon
IGROV1 ovarian = tested on: IGROV1 ovarian
LXFL 529 NSCLC = tested on: LXFL 529 NSCLC
ACHN renal = tested on: ACHN renal
RXF 393 renal = tested on: RXF 393 renal
HOP-18 NSCLC = tested on: HOP-18 NSCLC
UACC-257 melanoma = tested on: UACC-257 melanoma
UACC-62 melanoma = tested on: UACC-62 melanoma
TK-10 renal = tested on: TK-10 renal
KM12 colon = tested on: KM12 colon
DMS 273 small cell lung = tested on: DMS 273 small cell lung
SNB-75 CNS = tested on: SNB-75 CNS
SNB-78 CNS = tested on: SNB-78 CNS
DMS 114 small cell lung = tested on: DMS 114 small cell lung
HCC-2998 colon = tested on: HCC-2998 colon
A498 renal = tested on: A498 renal
SF-268 CNS = tested on: SF-268 CNS
A549 NSCLC = tested on: A549 NSCLC
EKVX NSCLC = tested on: EKVX NSCLC
SF-539 CNS = tested on: SF-539 CNS
HCT-116 colon = tested on: HCT-116 colon
KM20L2 colon = tested on: KM20L2 colon
NCI-H460 lung = tested on: NCI-H460 lung
NCI-H23 lung = tested on: NCI-H23 lung
SN12C renal = tested on: SN12C renal
MOLT-4 leukemia = tested on: MOLT-4 leukemia
OVCAR-8 ovarian = tested on: OVCAR-8 ovarian
786-0 renal = tested on: 786-0 renal
HOP-62 NSCLC = tested on: HOP-62 NSCLC
CCRF-CEM leukemia = tested on: CCRF-CEM leukemia
DLD-1 colon = tested on: DLD-1 colon
K-562 leukemia = tested on: K-562 leukemia
M19-MEL melanoma = tested on: M19-MEL melanoma
MALME-3M melanoma = tested on: MALME-3M melanoma
M14 melanoma = tested on: M14 melanoma
U251 CNS = tested on: U251 CNS
SW-620 colon = tested on: SW-620 colon
OVCAR-3 ovarian = tested on: OVCAR-3 ovarian
NCI-H226 lung = tested on: NCI-H226 lung
OVCAR-5 ovarian = tested on: OVCAR-5 ovarian
SF-295 CNS = tested on: SF-295 CNS
SR leukemia = tested on: SR leukemia
LOX IMVI melanoma = tested on: LOX IMVI melanoma
HOP-92 NSCLC = tested on: HOP-92 NSCLC

Structure (SMILES): O/N=C1/C(=C/c2ccc(Cl)c(Cl)c2)CCCC1C(NO)c1ccc(Cl)c(Cl)c1 (configuration not stated)
- TGI (SK-OV-3 ovarian): 39.1 µM
- TGI (CAKI-1 renal): 34 µM
- TGI (SK-MEL-28 melanoma): 34.5 µM
- TGI (NCI-H522 lung): 25 µM
- TGI (XF 498 CNS): 33.9 µM
- TGI (SK-MEL-5 melanoma): 35.3 µM
- TGI (SNB-19 CNS): 33.1 µM
- TGI (OVCAR-4 ovarian): 26.7 µM
- TGI (HL-60(TB) leukemia): 39 µM
- TGI (RPMI-8226 leukemia): 53.6 µM
- TGI (UO-31 renal): 35.7 µM
- TGI (COLO 205 colon): 35.7 µM
- TGI (HT29 colon): 32.1 µM
- TGI (SK-MEL-2 melanoma): 38.5 µM
- TGI (HCT-15 colon): 37.2 µM
- TGI (IGROV1 ovarian): 38.5 µM
- TGI (LXFL 529 NSCLC): 29.5 µM
- TGI (ACHN renal): 33 µM
- TGI (RXF 393 renal): 43.3 µM
- TGI (HOP-18 NSCLC): 30.5 µM
- TGI (UACC-257 melanoma): 34.1 µM
- TGI (UACC-62 melanoma): 35 µM
- TGI (TK-10 renal): 36.3 µM
- TGI (KM12 colon): 31.9 µM
- TGI (DMS 273 small cell lung): 36 µM
- TGI (SNB-75 CNS): 31.1 µM
- TGI (SNB-78 CNS): 37.7 µM
- TGI (DMS 114 small cell lung): 37.3 µM
- TGI (HCC-2998 colon): 36.8 µM
- TGI (A498 renal): 27.4 µM
- TGI (SF-268 CNS): 45.7 µM
- TGI (A549 NSCLC): 41.3 µM
- TGI (EKVX NSCLC): 42.9 µM
- TGI (SF-539 CNS): 33.2 µM
- TGI (HCT-116 colon): 30.3 µM
- TGI (KM20L2 colon): 35.3 µM
- TGI (NCI-H460 lung): 40 µM
- TGI (NCI-H23 lung): 35.6 µM
- TGI (SN12C renal): 35.2 µM
- TGI (MOLT-4 leukemia): 33.8 µM
- TGI (OVCAR-8 ovarian): 36.7 µM
- TGI (786-0 renal): 42.4 µM
- TGI (HOP-62 NSCLC): 48.2 µM
- TGI (CCRF-CEM leukemia): 46.1 µM
- TGI (DLD-1 colon): 37 µM
- TGI (K-562 leukemia): 63.6 µM
- TGI (M19-MEL melanoma): 33.8 µM
- TGI (MALME-3M melanoma): 44.4 µM
- TGI (M14 melanoma): 34.6 µM
- TGI (U251 CNS): 34.2 µM
- TGI (SW-620 colon): 36 µM
- TGI (OVCAR-3 ovarian): 27.8 µM

Structure (SMILES): COc1ccc(CC#C/C=C/C(=O)NCC(C)C)cc1
- TGI (SK-OV-3 ovarian): > 100 µM
- TGI (NCI-H226 lung): > 100 µM
- TGI (SK-MEL-28 melanoma): > 100 µM
- TGI (NCI-H522 lung): > 100 µM
- TGI (XF 498 CNS): > 100 µM
- TGI (SK-MEL-5 melanoma): > 100 µM
- TGI (SNB-19 CNS): > 100 µM
- TGI (OVCAR-4 ovarian): > 100 µM
- TGI (OVCAR-5 ovarian): > 100 µM
- TGI (HL-60(TB) leukemia): > 100 µM
- TGI (RPMI-8226 leukemia): > 100 µM
- TGI (UO-31 renal): > 100 µM
- TGI (SF-295 CNS): > 100 µM
- TGI (COLO 205 colon): > 100 µM
- TGI (HT29 colon): > 100 µM
- TGI (SK-MEL-2 melanoma): > 100 µM
- TGI (HCT-15 colon): > 100 µM
- TGI (IGROV1 ovarian): > 100 µM
- TGI (LXFL 529 NSCLC): > 100 µM
- TGI (ACHN renal): > 100 µM
- TGI (RXF 393 renal): > 100 µM
- TGI (HOP-18 NSCLC): > 100 µM
- TGI (UACC-257 melanoma): > 100 µM
- TGI (UACC-62 melanoma): > 100 µM
- TGI (TK-10 renal): > 100 µM
- TGI (KM12 colon): > 100 µM
- TGI (DMS 273 small cell lung): > 100 µM
- TGI (SR leukemia): > 100 µM
- TGI (LOX IMVI melanoma): > 100 µM
- TGI (SNB-75 CNS): > 100 µM
- TGI (SNB-78 CNS): > 100 µM
- TGI (DMS 114 small cell lung): > 100 µM
- TGI (HCC-2998 colon): > 100 µM
- TGI (SF-268 CNS): > 100 µM
- TGI (A549 NSCLC): > 100 µM
- TGI (EKVX NSCLC): > 100 µM
- TGI (SF-539 CNS): > 100 µM
- TGI (HCT-116 colon): > 100 µM
- TGI (KM20L2 colon): > 100 µM
- TGI (NCI-H460 lung): > 100 µM
- TGI (NCI-H23 lung): > 100 µM
- TGI (SN12C renal): > 100 µM
- TGI (HOP-92 NSCLC): > 100 µM
- TGI (MOLT-4 leukemia): > 100 µM
- TGI (OVCAR-8 ovarian): > 100 µM
- TGI (786-0 renal): > 100 µM
- TGI (CCRF-CEM leukemia): > 100 µM
- TGI (DLD-1 colon): > 100 µM
- TGI (K-562 leukemia): > 100 µM
- TGI (M19-MEL melanoma): > 100 µM
- TGI (MALME-3M melanoma): > 100 µM
- TGI (M14 melanoma): > 100 µM
- TGI (U251 CNS): > 100 µM
- TGI (SW-620 colon): > 100 µM
- TGI (OVCAR-3 ovarian): > 100 µM

Structure (SMILES): CCOc1ccc(N=Nc2ccc3oc(=O)c(/C(C)=N/NC(=O)CC(=O)Nc4cccc(OC)c4)cc3c2)cc1
- TGI (SK-OV-3 ovarian): 82.3 µM
- TGI (NCI-H226 lung): > 73 µM
- TGI (CAKI-1 renal): > 45.4 µM
- TGI (SK-MEL-28 melanoma): 92 µM
- TGI (NCI-H522 lung): 72.4 µM
- TGI (XF 498 CNS): 42 µM
- TGI (SK-MEL-5 melanoma): 58.4 µM
- TGI (SNB-19 CNS): > 79 µM
- TGI (OVCAR-4 ovarian): 52.6 µM
- TGI (OVCAR-5 ovarian): > 70.3 µM
- TGI (HL-60(TB) leukemia): 16.1 µM
- TGI (RPMI-8226 leukemia): 53.7 µM
- TGI (UO-31 renal): 29.5 µM
- TGI (SF-295 CNS): 53.8 µM
- TGI (COLO 205 colon): 78.3 µM
- TGI (SK-MEL-2 melanoma): 45.7 µM
- TGI (HCT-15 colon): > 86.3 µM
- TGI (IGROV1 ovarian): 65.4 µM
- TGI (LXFL 529 NSCLC): 33.5 µM
- TGI (ACHN renal): 51.6 µM
- TGI (RXF 393 renal): 38.1 µM
- TGI (HOP-18 NSCLC): 74.4 µM
- TGI (UACC-257 melanoma): 22 µM
- TGI (UACC-62 melanoma): 39.7 µM
- TGI (TK-10 renal): > 100 µM
- TGI (KM12 colon): > 56.9 µM
- TGI (DMS 273 small cell lung): > 71.2 µM
- TGI (SR leukemia): 10.1 µM
- TGI (LOX IMVI melanoma): 60.5 µM
- TGI (SNB-78 CNS): > 95.9 µM
- TGI (DMS 114 small cell lung): 44.5 µM
- TGI (HCC-2998 colon): 30.2 µM
- TGI (SF-268 CNS): 52.5 µM
- TGI (A549 NSCLC): > 74.6 µM
- TGI (EKVX NSCLC): 55.5 µM
- TGI (SF-539 CNS): 51 µM
- TGI (HCT-116 colon): 33.7 µM
- TGI (KM20L2 colon): > 31.6 µM
- TGI (NCI-H460 lung): 46.3 µM
- TGI (NCI-H23 lung): 33.4 µM
- TGI (SN12C renal): 30.8 µM
- TGI (HOP-92 NSCLC): 47.4 µM
- TGI (MOLT-4 leukemia): > 56 µM
- TGI (OVCAR-8 ovarian): > 61.4 µM
- TGI (786-0 renal): 22.3 µM
- TGI (HOP-62 NSCLC): 31.7 µM
- TGI (CCRF-CEM leukemia): 21.6 µM
- TGI (DLD-1 colon): 45.5 µM
- TGI (K-562 leukemia): 86.5 µM
- TGI (M19-MEL melanoma): > 88.1 µM
- TGI (MALME-3M melanoma): 37.5 µM
- TGI (M14 melanoma): 77.3 µM
- TGI (U251 CNS): 17.1 µM
- TGI (SW-620 colon): 85.1 µM
- TGI (OVCAR-3 ovarian): 37 µM
